For data set [1] the following is noted: 101.33 kPa, Liquid; for mass density: 298.1 K; for viscosity: 298.15 K.
Data set [2] in a line: refractive index (Na D-line) (dimensionless). The conditions noted are these: 298.1 K, 101.33 kPa, Liquid.
The mark [3] stands for this setting: Capillary tube (Ostwald / Ubbelohde) method.

± gives the expanded uncertainty stated by the source.

As a reminder, the mass density is the mass of a sample divided by its volume. One may read the viscosity as the resistance of a fluid to flow. As a reminder, the refractive index is a measure of how strongly the sample bends light.

`CCCCCCCCn1cc[n+](C)c1.O=S(=O)([N-]S(=O)(=O)C(F)(F)F)C(F)(F)F`: in data set [1], the mass density amounted to 1319.78 ± 4.3 kg/m3 and the viscosity was determined as 90.37 ± 4.8 mPa·s. In addition, in data set [2], the refractive index was 1.4327 ± 0.00089.
As to `CC(C)CC(C)(C)C` [2,2,4-trimethylpentane], the mass density in data set [1] (Vibrating tube method) was 687.84 ± 0.23 kg/m3. For the same compound, the refractive index in data set [2] (Standard Abbe refractometry) came out at 1.38921 ± 0.00041.
For the compound `c1ccsc1` [thiophene], in data set [1] (Vibrating tube method), the mass density came out at 1058.59 ± 0.14 kg/m3. In addition, in data set [1] (setting [3]), the viscosity came to 0.612 ± 0.007 mPa·s. For the same compound, in data set [2] (Standard Abbe refractometry), the refractive index stood at 1.5253 ± 0.00041.
Taken in the same sequence, the figures for `Cc1ccccc1` [toluene] were 862.2 ± 0.16 kg/m3, 0.577 ± 0.007 mPa·s and 1.49393 ± 0.00041.

The values are drawn from the NIST ThermoML archive (doi:10.1021/je800071q).
